Experimental data published in patent US20250084453A1, “SYSTEMS, COMPOSITIONS AND METHODS FOR IDENTIFYING E3 LIGASE SUBSTRATES BY UBIQUITIN BIOTINYLATION” (The Broad Institute, Inc., priority 2022, published 2025).

Tested on: CRBN E3 ligase
Assay: Mass spectrometry of streptavidin pulldown of biotinylated ubiquitinated proteins, CRBN-BirA 293T cells with Avi-Ub or A3-Ub
Type: cell-based, human
Method: The cells were either treated or untreated with carfilzomib (0.4 μM) for 1 hour and were either treated or untreated with the CRBN-IMiD modifying agent CC-885 (1 μM) for another hour. […] As discussed above in Example 1, the GSPT1 substrate of BirA-tagged CRBN is expressed endogenously in 293T cells.
For such MS analyses, 50 μl of resuspended streptavidin beads were incubated with 1 ml of cell lysates (3 mg/ml) at 4° C. overnight. On the next day, the beads were pelleted (400×g, 1 minute), washed two times with 2% SDS (2% SDS, 25 mM Tris-HCl pH 7.5), and then washed three times with 6M urea (6M urea, 50 mM Tris-HCl pH 8). Each wash was performed by rotating the samples at room temperature for at least five minutes. Following the washes, the beads were resuspended in 90 μl of 2M urea, to which 10 μl of 0.1M TCEP (tris(2-carboxyethyl)phosphine, reducing agent) was added for a final concentration of 10 mM TCEP. The samples were agitated at 37° C. for 30 minutes to allow for protein reduction. Next, 10 μl of 0.165 M IAA, (iodoacetamide, alkylating agent) was added to a final concentration of 15 mM IAA. The samples were agitated in the dark at room temperature for 45 minutes. Thereafter, 1 μg of trypsin/LysC (Promega, Trypsin/Lys-C Mix, Mass Spec Grade, V5071) was added to each sample, and the samples were agitated for 3-4 hours at 37° C. Subsequently, 0.5 μg of trypsin/LysC (Promega, Trypsin/Lys-C Mix, Mass Spec Grade, V5071) was added to each sample, and the samples were agitated overnight at 37° C. On the next day, the supernatant containing the digested peptides was collected. The beads were washed two times with HPLC-grade water and were combined with the previously collected supernatant. Samples were centrifuged at 21,000×g for 10 minutes, and the clarified supernatant at the top was saved. Samples were acidified by the addition of 50% formic acid to a final concentration of 2%. Samples were vacuum dried (Speedvac) overnight and kept at −80° C. until ready for analysis by MS. […]
The preparation of cellular lysate was as described above for Cell Lysis, except that the RIPA buffer was supplemented with COMPLETE™ EDTA-free protease inhibitor cocktail (Roche; 04693159001; 1 tablet per 10 ml of buffer), benzonase (Millipore; E1014; 1 μl per 10 ml of buffer), 1.5 mM MgCl2, 1 mM EGTA, and 10 mM NEM (N-ethylmaleimide). For each sample, 1 ml of 3 mg/ml lysate was rotated overnight at 4° C. with 50 μl of resuspended streptavidin Sepharose beads (CYTIVA™; 17511301), which were pre-washed with RIPA lysis buffer 3 times. For all steps that required pelleting of beads, centrifugation was performed at 400×g for 1 minute. On the next day, streptavidin beads were pelleted, and the supernatant (a.k.a. flow-through) was either saved for analysis by Western blotting or was discarded.

[1] = Table 3 (head Avi-, text A3-Ub), DMSO 0
[2] = Table 3 (head Avi-, text A3-Ub), DMSO 3
[3] = Table 3 (head Avi-, text A3-Ub), DMSO 5
[4] = Table 3 (head Avi-, text A3-Ub), DMSO 6
[5] = Table 3 (head Avi-, text A3-Ub), DMSO 7
[6] = Table 3 (head Avi-, text A3-Ub), DMSO 9
[7] = Table 3 (head Avi-, text A3-Ub), DMSO 15

With Cc1ccc(NC(=O)NCc2ccc3c(c2)CN(C2CCC(=O)NC2=O)C3=O)cc1Cl (stereo not drawn) [CC-885] the “Most upregulated proteins in streptavidin pulldown versus DMSO” value (A3-Ub, triplicates, log2 FC and p-value (limma), FIG. 9) was “GSPT1 and GSPT2”, the “# of PSMs, GSPT1” value (Table 2, Avi-Ub, DMSO 0) was 25 and the “# of PSMs, GSPT2” value (Table 2, Avi-Ub, DMSO 0) was 13. The “# of PSMs, POLR2A” value (Table 2, Avi-Ub, DMSO 9) was 11, the “# of PSMs, PSMD4” value (Table 2, Avi-Ub, DMSO 10) was 11 and the “# of PSMs, VCL” value (Table 2, Avi-Ub, DMSO 10) was 56. The “# of PSMs, SMC1A” value (Table 2, Avi-Ub, DMSO 12) was 13, the “# of PSMs, H2AFV” value (Table 2, Avi-Ub, DMSO 14) was 14 and the “# of PSMs, CTNNA1” value (Table 2, Avi-Ub, DMSO 15) was 12. For the same compound, the “# of PSMs, gene symbol printed as image P00007” value (Table 2, Avi-Ub, DMSO 16) was 18, the “# of PSMs, DYNC1H1” value (Table 2, Avi-Ub, DMSO 17) was 13 and the “# of PSMs, RPS3” value (Table 2, Avi-Ub, DMSO 17) was 21. For the same compound, the “# of PSMs, HSPA1B; HSPA1A” value (Table 2, Avi-Ub, DMSO 18) was 18, the “# of PSMs, HIST2H2AC” value (Table 2, Avi-Ub, DMSO 19) was 18 and the “# of PSMs, UBE2K” value (Table 2, Avi-Ub, DMSO 19) was 17. For the same compound, the “# of PSMs, CTNNB1” value (Table 2, Avi-Ub, DMSO 20) was 15, the “# of PSMs, HSPA8” value (Table 2, Avi-Ub, DMSO 20) was 13 and the “# of PSMs, MCCC1” value (Table 2, Avi-Ub, DMSO 20) was 16. For the same compound, the “# of PSMs, PRPF8” value (Table 2, Avi-Ub, DMSO 20) was 19, the “# of PSMs, UBE2N” value (Table 2, Avi-Ub, DMSO 20) was 14 and the “# of PSMs, VCP” value (Table 2, Avi-Ub, DMSO 20) was 11. For the same compound, the “# of PSMs, DSP” value (Table 2, Avi-Ub, DMSO 21) was 14, the “# of PSMs, gene symbol printed as image P00006” value (Table 2, Avi-Ub, DMSO 21) was 13 and the “# of PSMs, EEF2” value (Table 2, Avi-Ub, DMSO 22) was 13. For the same compound, the “# of PSMs, HSP90AB1” value (Table 2, Avi-Ub, DMSO 22) was 15, the “# of PSMs, gene symbol printed as image P00001” value (Table 2, Avi-Ub, DMSO 22) was 15 and the “# of PSMs, gene symbol printed as image P00003” value (Table 2, Avi-Ub, DMSO 22) was 14. The “# of PSMs, AMOT” value (Table 2, Avi-Ub, DMSO 23) was 19, the “# of PSMs, HSP90AA1” value (Table 2, Avi-Ub, DMSO 24) was 13 and the “# of PSMs, PRKDC” value (Table 2, Avi-Ub, DMSO 24) was 17. The “# of PSMs, FASN” value (Table 2, Avi-Ub, DMSO 28) was 17, the “# of PSMs, USP9X” value (Table 2, Avi-Ub, DMSO 32) was 21 and the “# of PSMs, UBA1” value (Table 2, Avi-Ub, DMSO 34) was 31. The “# of PSMs, gene symbol printed as image P00004” value (Table 2, Avi-Ub, DMSO 34) was 30, the “# of PSMs, gene symbol printed as image P00005” value (Table 2, Avi-Ub, DMSO 36) was 29 and the “# of PSMs, UBE2O” value (Table 2, Avi-Ub, DMSO 37) was 23. For the same compound, the “# of PSMs, UBA6” value (Table 2, Avi-Ub, DMSO 39) was 37, the “# of PSMs, gene symbol printed as image P00002” value (Table 2, Avi-Ub, DMSO 39) was 33 and the “# of PSMs, PCCA” value (Table 2, Avi-Ub, DMSO 45) was 41. For the same compound, the “# of PSMs, ACACA” value (Table 2, Avi-Ub, DMSO 60) was 52, the “# of PSMs, PC” value (Table 2, Avi-Ub, DMSO 116) was 104 and the “# of PSMs, ACACB” value [1] was 17. For the same compound, the “# of PSMs, GSPT1” value [1] was 30, the “# of PSMs, GSPT2” value [1] was 20 and the “# of PSMs, HIST1H1D” value [1] was 5. For the same compound, the “# of PSMs, VCL” value [1] was 9, the “# of PSMs, CCDC144A” value [2] was 10 and the “# of PSMs, DDX5” value [2] was 5. For the same compound, the “# of PSMs, HIST2H2BF” value [3] was 5, the “# of PSMs, SPEN” value [3] was 9 and the “# of PSMs, HIST2H2BE” value [4] was 6. For the same compound, the “# of PSMs, THAP5” value [4] was 7, the “# of PSMs, gene symbol printed as image P00009” value [4] was 6 and the “# of PSMs, CCT8” value [5] was 14. The “# of PSMs, EEF1A1” value [5] was 6, the “# of PSMs, EEF2” value [5] was 5 and the “# of PSMs, ENO1” value [5] was 6. The “# of PSMs, UBE2N” value [5] was 6, the “# of PSMs, HIST1H4A . . .” value [6] was 9 and the “# of PSMs, HSP90AB1” value [6] was 9. For the same compound, the “# of PSMs, gene symbol printed as image P00010” value (Table 3 (head Avi-, text A3-Ub), DMSO 10) was 11, the “# of PSMs, HSP90AA1” value (Table 3 (head Avi-, text A3-Ub), DMSO 14) was 12 and the “# of PSMs, HSPA1B; HSPA1A” value [7] was 6. For the same compound, the “# of PSMs, HSPA8” value [7] was 10, the “# of PSMs, gene symbol printed as image P00008” value (Table 3 (head Avi-, text A3-Ub), DMSO 23) was 17 and the “# of PSMs, MCCC1” value (Table 3 (head Avi-, text A3-Ub), DMSO 26) was 24. The “# of PSMs, ACACA” value (Table 3 (head Avi-, text A3-Ub), DMSO 71) was 75, the “# of PSMs, PCCA” value (Table 3 (head Avi-, text A3-Ub), DMSO 106) was 103 and the “# of PSMs, PC” value (Table 3 (head Avi-, text A3-Ub), DMSO 155) was 167.
